Among the data in ChEMBL document CHEMBL1125567, “Novel cAMP PDE III inhibitors: 1,6-naphthyridin-2(1H)-ones” (J Med Chem, 1992) are inhibition and IC50 values, retold here.

The subject of assay [1] is Phosphodiesterase 3 (Canis lupus familiaris). Description: In vitro inhibition of cAMP Phosphodiesterase 3 at a concentration of 10 uM.
For assay [2], the target named is Phosphodiesterase 3 (Canis lupus familiaris). The experiment in a line: In vitro inhibitory activity against cAMP PDE III.
Assay [3] deals with Phosphodiesterase 3 (Canis lupus familiaris). The experiment in a line: In vitro inhibition of cAMP PDE III by the compound at a concentration of 10 uM.
The target of assay [4] is Phosphodiesterase 3 (Canis lupus familiaris). The experiment in a line: Inhibition of cAMP Phosphodiesterase 3.
Assay [5] deals with Phosphodiesterase 3 (Canis lupus familiaris). Description: Inhibition of cAMP Phosphodiesterase 3 at 10 uM.
The target in assay [6] is Phosphodiesterase 3 (Canis lupus familiaris). Description: Inhibition of cAMP PDE 3.
Assay [7] shares this target. The experiment in a line: Inhibition of cAMP PDE 3. This is another data set of the same source.
The subject of assay [8] is Phosphodiesterase 3 (Canis lupus familiaris). Description: Inhibition of cAMP PDE 3 at 10 uM.

`O=[N+]([O-])c1cn(-c2nccc3nc(O)ccc23)cn1` displayed an inhibition in assay [1] of 46%.

In the case of `Cc1nccc2nc(O)c(O)cc12`, the inhibition in assay [1] stood at 51%.

Take `Oc1ccc2c(-c3ccc(F)cc3)nccc2n1`: in assay [2], the half-inhibitory concentration (IC50) turned out to be 940 nM. Also, the inhibition in assay [3] amounted to 78%.

In the case of `Cc1nccn1-c1nccc2nc(O)ccc12`, the inhibition in assay [1] worked out at 34%.

`Cc1cn(-c2nccc3nc(O)ccc23)cn1`: the IC50 in assay [2] was 2800 nM. The same compound gave an inhibition in assay [3] of 72%.

As to `Cc1ncn(-c2nccc3nc(O)ccc23)c1C`, the inhibition in assay [1] came to 28%.

In assay [4], `Oc1ccc(-c2nccc3nc(O)ccc23)cc1` yielded an IC50 of 600 nM. In assay [1], this compound registered an inhibition of 81%.

The compound `COc1ccc2c(C)nccc2n1` registered an inhibition in assay [1] of 21%.

Consider `Oc1ccc2c(-c3ccccc3)nccc2n1`, for which the concentration for half-maximal inhibition (IC50) in assay [2] was found to be 1400 nM. Moreover, the inhibition in assay [3] is 78%.

In assay [2], `CCc1nccc2nc(O)ccc12` showed an IC50 of 40 nM. The inhibition in assay [3] stood at 87%.

The compound `OCc1cn(-c2nccc3nc(O)ccc23)cn1` came in with an inhibition in assay [1] of 58%.

On to `Oc1ccc2c(-c3ccco3)nccc2n1`, for which, in assay [2], the IC50 came to 140 nM. This compound yielded an inhibition in assay [3] of 74%.

`Cc1cc2cnccc2nc1O` gave an inhibition in assay [1] of 37%.

As for `Cc1nccc2nc(Cl)ccc12`, in assay [5], the inhibition was 18%.

`Oc1ccc2c(-c3ccc(Cl)cc3)nccc2n1` displayed an IC50 in assay [2] of 300 nM. In assay [3], this compound displayed an inhibition of 78%.

As to `Cc1cnn(-c2nccc3nc(O)ccc23)c1`, the inhibition in assay [1] came to 30%.

`Oc1ccc2c(Br)nccc2n1` gave an IC50 in assay [6] of 170 nM. This compound came in with an inhibition in assay [5] of 70%.

Turning to `Oc1ccc2cnccc2n1`, the half-inhibitory concentration (IC50) in assay [2] worked out at 18800 nM. The inhibition in assay [3] is 55%.

With `CCCc1nccc2nc(O)ccc12`, in assay [2], the IC50 amounted to 48 nM. Moreover, the inhibition in assay [3] was found to be 83%.

In turn, `Cn1c(=O)ccc2c(-c3ccccc3)nccc21` registered an inhibition in assay [1] of 36%.

`Cc1cn(-c2nccc3c2ccc(=O)n3C)cn1`: the inhibition in assay [1] came to 21%.

Turning to `Cc1nccc2nc(N)ccc12`, the inhibition in assay [1] worked out at 24%.

On to `Cc1nccc2nc(O)c(C(N)=O)cc12`, for which the inhibition in assay [1] is 39%.

On to `Cc1ncc([N+](=O)[O-])n1-c1nccc2nc(O)ccc12`, for which the inhibition in assay [1] is 18%.

Regarding `Oc1ccc2c(-n3cccn3)nccc2n1`, the inhibition in assay [1] amounted to 39%.

In assay [5], `Oc1ccc2c(-n3cncn3)nccc2n1` had an inhibition of 50%.

`Cc1nccc2nc(O)c(C#N)cc12` came in with an inhibition in assay [1] of 52%.

Consider `Oc1ccc2c(-n3cnc(Br)c3)nccc2n1`, for which the inhibition in assay [5] was 43%.

In the case of `Cc1c2ccc(=O)[nH]c2cc[n+]1[O-]`, the IC50 in assay [2] came to 3100 nM. The same compound gave an inhibition in assay [3] of 65%.

Take `Oc1ccc2c(-n3cnc(-c4ccccc4)c3)nccc2n1`: the inhibition in assay [1] was 43%.

`Oc1ccc2c(-c3ccncc3)nccc2n1`: the IC50 in assay [2] stood at 2200 nM. This compound showed an inhibition in assay [3] of 78%.

Consider `COc1ccc(-c2nccc3nc(O)ccc23)cc1`, for which, in assay [2], the IC50 is 3200 nM. The inhibition in assay [3] was 64%.

`Cc1nccc2nc(O)c(N)cc12` came in with an inhibition in assay [1] of 59%.

Regarding `CC(=O)c1nccc2nc(O)ccc12`, in assay [2], the IC50 is 1420 nM. Further, in assay [3], the inhibition was 85%.

Turning to `Oc1ccc2c(-c3cccs3)nccc2n1`, the concentration for half-maximal inhibition (IC50) in assay [2] is 140 nM. In addition, the inhibition in assay [3] stood at 79%.

The compound `Nc1ccc(-c2nccc3nc(O)ccc23)cc1` came in with an IC50 in assay [2] of 230 nM. The compound further came in with an inhibition in assay [3] of 91%.

For the compound `Oc1ccc2c(-n3cnc(C(F)(F)F)c3)nccc2n1`, the inhibition in assay [1] stood at 13%.

As to `Oc1ccc2c(C(Cl)Cl)nccc2n1`, the IC50 in assay [6] was 160 nM. In assay [5], this compound showed an inhibition of 83%.

In assay [7], `Cc1nccc2[nH]c(=O)ccc12` [MEDORINONE] had an IC50 of 550 nM. In addition, in assay [8], the inhibition was determined as 67%.

The compound `Cc1nccc2nc(S)ccc12` displayed a half-inhibitory concentration (IC50) in assay [4] of 960 nM. The compound further came in with an inhibition in assay [1] of 81%.

For `Cc1cc2nc(O)ccc2cn1`, the inhibition in assay [1] amounted to 53%.

Regarding `CC(C)Cc1nccc2nc(O)ccc12`, in assay [2], the IC50 was determined as 570 nM. This compound came in with an inhibition in assay [3] of 81%.

Take `Oc1ccc2c(-n3ccnc3)nccc2n1`: the inhibition in assay [1] amounted to 56%.

In turn, `Cc1ncn(-c2nccc3nc(O)ccc23)n1` registered an inhibition in assay [1] of 39%.

Regarding `Oc1ccc2c(-c3ccc(Br)cc3)nccc2n1`, the inhibition in assay [1] is 55%.

In turn, `Cc1nccc2c1ccc(=O)n2C` yielded an inhibition in assay [1] of 17%.

Consider `OCc1nccc2nc(O)ccc12`, for which, in assay [2], the concentration for half-maximal inhibition (IC50) was 3700 nM. The inhibition in assay [3] came out at 58%.

Usually inhibition stands for the change of the read-out against control, counted positive when it falls. Higher therefore signals a response far below the control. What is called IC50 is the concentration that gives 50% inhibition.
